{
  "source": "paper PMC6524651",
  "about": "(Cell chemical biology, 2018)",
  "key": {"[1]": {"tested_on": "miR-34b and c-Myc in lymphoma (Raji) and colorectal cancer (HCT116) cells", "assay": "RT-qPCR and Western blot of miR-34b and c-Myc in cancer cell lines", "type": "cell-based, human"}, "[2]": {"biological_target": "T1, Nedd8 activating enzyme in HCT-116 cells (Homo sapiens, UniProt Q8TBC4)", "T1 sequence (Q8TBC4 1-463)": "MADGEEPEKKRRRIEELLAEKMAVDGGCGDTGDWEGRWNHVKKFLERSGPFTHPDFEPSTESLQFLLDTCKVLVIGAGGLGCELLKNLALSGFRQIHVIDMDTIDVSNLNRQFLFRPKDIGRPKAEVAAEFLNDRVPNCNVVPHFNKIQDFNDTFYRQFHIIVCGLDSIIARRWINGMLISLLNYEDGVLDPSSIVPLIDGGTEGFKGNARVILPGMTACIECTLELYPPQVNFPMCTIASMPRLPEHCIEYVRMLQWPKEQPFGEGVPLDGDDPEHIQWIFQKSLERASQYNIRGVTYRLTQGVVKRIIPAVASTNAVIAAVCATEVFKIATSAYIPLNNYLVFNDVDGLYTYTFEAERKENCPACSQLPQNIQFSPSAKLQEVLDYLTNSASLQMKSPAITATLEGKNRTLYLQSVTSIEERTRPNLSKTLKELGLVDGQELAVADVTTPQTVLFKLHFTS", "T1 sequence (Q13564 1-534 partner)": "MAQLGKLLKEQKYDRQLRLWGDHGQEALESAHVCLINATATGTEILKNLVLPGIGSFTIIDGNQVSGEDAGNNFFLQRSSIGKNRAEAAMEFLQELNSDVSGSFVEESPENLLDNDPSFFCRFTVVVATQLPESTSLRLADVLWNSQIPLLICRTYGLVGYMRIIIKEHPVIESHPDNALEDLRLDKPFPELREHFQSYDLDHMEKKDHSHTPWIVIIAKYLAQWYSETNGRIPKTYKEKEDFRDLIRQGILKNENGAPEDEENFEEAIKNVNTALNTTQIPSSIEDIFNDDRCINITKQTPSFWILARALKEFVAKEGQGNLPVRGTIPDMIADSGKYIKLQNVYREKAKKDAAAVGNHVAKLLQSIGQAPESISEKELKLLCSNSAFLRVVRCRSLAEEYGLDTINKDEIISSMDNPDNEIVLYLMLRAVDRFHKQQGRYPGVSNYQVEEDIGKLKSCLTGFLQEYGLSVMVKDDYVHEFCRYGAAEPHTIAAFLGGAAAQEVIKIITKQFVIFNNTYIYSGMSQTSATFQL", "assay": "Western blot of Nedd8•Ubc12 thioester formation in cells", "type": "cell-based", "settings": "HCT-116 cell lysates"}, "[3]": {"biological_target": "SAE2 (SUMO E1) Cys residues (Homo sapiens, UniProt Q9UBT2)", "sequence (Q9UBT2 whole entry)": "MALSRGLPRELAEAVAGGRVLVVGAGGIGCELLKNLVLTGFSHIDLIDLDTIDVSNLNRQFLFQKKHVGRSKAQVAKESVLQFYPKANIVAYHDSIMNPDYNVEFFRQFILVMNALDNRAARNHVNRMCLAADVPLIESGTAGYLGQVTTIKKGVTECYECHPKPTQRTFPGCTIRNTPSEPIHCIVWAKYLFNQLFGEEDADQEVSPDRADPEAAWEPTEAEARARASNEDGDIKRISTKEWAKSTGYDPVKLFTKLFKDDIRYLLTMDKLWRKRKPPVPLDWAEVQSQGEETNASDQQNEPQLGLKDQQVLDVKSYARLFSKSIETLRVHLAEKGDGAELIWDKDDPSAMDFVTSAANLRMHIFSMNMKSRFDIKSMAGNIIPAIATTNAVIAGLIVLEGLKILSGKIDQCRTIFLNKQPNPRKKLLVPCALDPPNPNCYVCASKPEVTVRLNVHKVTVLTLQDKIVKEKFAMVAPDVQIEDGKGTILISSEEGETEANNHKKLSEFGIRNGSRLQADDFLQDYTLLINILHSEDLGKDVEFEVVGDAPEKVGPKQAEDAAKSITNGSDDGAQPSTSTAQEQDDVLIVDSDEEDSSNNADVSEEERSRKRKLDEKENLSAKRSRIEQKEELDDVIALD", "sequence (Q9UBE0 whole entry partner)": "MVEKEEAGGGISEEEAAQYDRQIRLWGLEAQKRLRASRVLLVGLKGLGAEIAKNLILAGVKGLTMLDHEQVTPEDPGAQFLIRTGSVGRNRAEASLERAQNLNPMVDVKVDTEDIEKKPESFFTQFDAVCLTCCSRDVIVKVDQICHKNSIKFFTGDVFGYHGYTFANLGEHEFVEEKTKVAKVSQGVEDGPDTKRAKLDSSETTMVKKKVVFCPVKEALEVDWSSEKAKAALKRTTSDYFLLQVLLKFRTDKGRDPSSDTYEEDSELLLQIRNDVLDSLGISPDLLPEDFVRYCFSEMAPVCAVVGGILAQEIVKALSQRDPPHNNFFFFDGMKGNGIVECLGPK", "assay": "LC-MS/MS analysis of pepsin digest of SUMO E1 inhibited by COH000", "type": "binding"}, "[4]": {"tested_on": "primary colorectal tumor cells from PDX", "assay": "Primary colorectal tumor cells from patient-derived xenograft tissues", "type": "cell-based, human"}, "[5]": {"biological_target": "SUMO E1 (Homo sapiens, UniProt Q9UBT2)", "sequence (Q9UBT2 whole entry)": "as the sequence (Q9UBT2 whole entry) above", "sequence (Q9UBE0 whole entry partner)": "as the sequence (Q9UBE0 whole entry partner) above", "assay": "Differential scanning fluorimetry of SUMO E1", "settings": "SUMO E1 fully inhibited by COH000"}, "[6]": {"biological_target": "SUMO activating enzyme (SAE, SUMO E1) (Homo sapiens, UniProt Q9UBT2)", "sequence (Q9UBT2 whole entry)": "as the sequence (Q9UBT2 whole entry) above", "sequence (Q9UBE0 whole entry partner)": "as the sequence (Q9UBE0 whole entry partner) above", "assay": "AlphaScreen in vitro SUMOylation assay", "type": "biochemical"}, "[7]": {"biological_target": "SUMO E1 (SAE) adenylation step (Homo sapiens, UniProt Q9UBT2)", "sequence (Q9UBT2 whole entry)": "as the sequence (Q9UBT2 whole entry) above", "sequence (Q9UBE0 whole entry partner)": "as the sequence (Q9UBE0 whole entry partner) above", "assay": "ATP:PPi isotope exchange assay of the adenylation step"}, "[8]": {"tested_on": "cellular proteins of HCT116 cells", "assay": "Target profiling by pull-down with alkyne-containing probe", "type": "cell-based, human", "settings": "preliminary profiling, 2 μM"}},
  "data": [
    {"molecule": "COC(=O)C1=C(C(=O)OC)C2([C@@H](Cc3ccc(C)cc3)Nc3ccccc3)C=CC1O2", "note": "(stereo partly drawn) [COH000, dimethyl 1-((R)-1-(phenylamino)-2-(p-tolyl)ethyl)7-oxabicyclo[2.2.1]hepta-2,5-diene-2,3-dicarboxylate]", "values": [
      {"measurement": "miR-34b expression", "setting": "[1]; 2 days of treatment, RT-qPCR", "result": "increased the expression of miR-34b"},
      {"measurement": "c-Myc mRNA and protein levels", "setting": "[1]; RT-qPCR and Western blot", "result": "reduced c-Myc mRNA and protein levels"},
      {"measurement": "NEDD8•Ubc12 thioester formation in cells", "setting": "[2]", "result": "did not inhibit the homologous enzymes catalyzing ubiquitylation or NEDDylation"},
      {"measurement": "modification of catalytic Cys173 of SAE2", "setting": "[3]; full inhibition by the compound", "result": "did not modify Cys173"},
      {"measurement": "labeling of SAE2 Cys30 by intact mass", "setting": "[3]; full inhibition, >10 fold excess for > 1 h", "result": 100, "unit": "%"},
      {"measurement": "cancer cell viability in primary colorectal PDX samples", "setting": "[4]", "result": "decreased cancer cell viability"},
      {"measurement": "apoptosis in primary colorectal PDX samples", "setting": "[4]; 48 h treatment", "result": "induced apoptosis"},
      {"measurement": "c-Myc level, samples from Patient #2 and #3", "setting": "[4]; higher c-Myc levels", "result": "showed reduced c-Myc levels"},
      {"measurement": "c-Myc level, sample from Patient #1", "setting": "[4]; lowest c-Myc level among the three samples", "result": "did not show much further reduction of c-Myc level"},
      {"measurement": "thermal denaturation of SUMO E1, inhibitor bound vs unbound", "setting": "[5]", "result": "higher melting temperature"},
      {"measurement": "IC50", "setting": "[6]", "result": "~200", "unit": "nM"},
      {"measurement": "selectivity for SUMOylation than ubiquitylation", "setting": "[6]; SUMOylation vs Ubc13-mediated poly-ubiquitylation", "result": "over 500 fold"},
      {"measurement": "effect on SUMO adenylation (32PPi:ATP isotope exchange)", "setting": "[7]; COH000 0–2 μM", "result": "inhibited SUMO adenylation"},
      {"measurement": "effect of increasing ATP or SUMO1 on the inhibition of adenylation", "setting": "[7]; increasing concentrations of ATP or SUMO1", "result": "not overcome with increasing concentrations of ATP or SUMO1"},
      {"measurement": "other targets in cells (pull-down with alkyne-containing analog probe)", "setting": "[8]", "result": "does not have a large number of other targets"}
    ]}
  ]
}
